In patent US20250090529A1, “USE OF SHP2 INHIBITORS FOR THE TREATMENT OF INSULIN RESISTANCE” (INSERM (INSTITUT NATIONAL DE LA SANTÉ ET DE LA RECHERCHE …, priority 2018, published 2025):

Experiments:
[1] = Garcia Fortanet et al., J Med Chem 2016; cited from earlier work
Obese diabetic mice = experiment: OGTT in obese diabetic mice after chronic SHP2 inhibition; conditions: gavage 50 mg/kg/day
Description: Obese diabetic mice were treated by gavage (50 mg/kg/day). After 15 days of treatment an OGTT was performed (FIG. 1).

[2] = test system: renal fibrosis induced by carbon tetrachloride; conditions: Kostallari et al., 2018; cited from earlier work
[3] = after 15 days of treatment, compared to control

In the case of `CC1(N)CCN(c2cnc(-c3cccc(Cl)c3Cl)c(N)n2)CC1` [SHP099, 6-(4-amino-4-methylpiperidin-1-yl)-3-(2,3-dichlorophenyl)pyrazin-2-amine], the oral bioavailability [1] is given as “good”, the tolerance [1] is given as “good tolerance” and the body composition (Obese diabetic mice; 15 days of treatment) is given as “without any change”. For the same compound, the weight (Obese diabetic mice; 15 days of treatment) was “without any change”, the fasting blood glucose (Obese diabetic mice; [3]) was “decreased fasting blood glucose” and the “glucose tolerance (OGTT)” value (Obese diabetic mice; [3]) was “significant improvement in the glucose tolerance”. For the same compound, the “effectiveness in treatment of renal fibrosis” value [2] was “effectiveness in treatment of renal fibrosis”.
